Test results: US7915238B2, “Immunomodulatory compounds and methods of use thereof” (Eisai R & D Management Co., Ltd., priority 1999, dated 2011)
Like-named read-outs stand apart in the source and are kept apart here.

System: Human Whole Blood
Assay: Cytokine release in human whole blood (ELISA)
Format: cell-based
Details: whole blood, read-out: WB ED50 vs LPS@ 10 ng/ml
Experimental: The most readily available human system to test compound activity on monocytes/macrophages is in whole blood. Various concentrations of compounds of the invention were added as 10× stocks in 50 μl of Ca^++, Mg^++-free Hank's balanced salt solution (HBSS) followed by 50 μl of HBSS into 400 μl of heparinized whole blood obtained from normal volunteers (18-51 years old; 110-230 lb.) into the wells of plastic assay plates, for a total volume of 500 μl/well (final concentration of whole blood was 80%). After a 3-hour incubation with gentle shaking at 37° C. in a 5% CO2 atmosphere, the assay plates were centrifuged at 1000×g for 10 min. at 4° C. and plasma was drawn off and frozen at −80° C. Plasma samples were analyzed for TNF-alpha, IL-10, and IL-12 by ELISA (Genzyme Corp., Cambridge, Mass.). Each assay point was tested in triplicate.
This stimulatory activity can be compared to that of 10 ng/ml endotoxin (or LPS) present in similar incubations in the same assay.

Question: Which EC50 (vs. % of LPS at 10 ng/ml) does the source give for `CCCCCC/C=C\CCCC(=O)O[C@H](CCCCCCC)CCOC[C@@H](COP(=O)(O)OCCNC(=O)CC(=O)NCCOP(=O)(O)OC[C@H](COCC[C@@H](CCCCCCC)OC(=O)CCC/C=C\CCCCCC)NC(=O)CC(=O)CCCCCCCCCCC)NC(=O)CC(=O)CCCCCCCCCCC` [compound 804061] here?
Answer: 2500 nM

Question: `CCCCCCCCCCCC(=O)CC(=O)N[C@H](COCC[C@@H](CCCCCCC)OC(=O)CCCCCCCCCCC)COP(=O)(O)OCCNC(=O)NCCOP(=O)(O)OC[C@H](COCC[C@@H](CCCCCCC)OC(=O)CCCCCCCCCCC)NC(=O)CC(=O)CCCCCCCCCCC` [compound 804097] was tested. Which EC50 (vs. % of LPS at 10 ng/ml) did it give?
Answer: 300 nM

Question: Which EC50 (vs. % of LPS at 10 ng/ml) does the source give for `CCCCCCCCCCCCCC(=O)N[C@H](COCC[C@H](CCCCCCC)CCCCCCCCCCCC)COP(=O)(O)OCCNC(=O)NCCOP(=O)(O)OC[C@@H](COCC[C@H](CCCCCCC)CCCCCCCCCCCC)NC(=O)CCCCCCCCCCCCC` [compound 804121] here?
Answer: 460 nM

Question: `CCCCCCCCCCCCCC(=O)N[C@H](COCC[C@H](CCCCCCC)CCCCCCCCCCCC)COP(=O)(O)OCCNC(=O)NCCOP(=O)(O)OC[C@@H](COCC[C@H](CCCCCCC)CCCCCCCCCCCC)NC(=O)CCCCCCCCCCCCC` [compound 804130] was tested. Which EC50 (vs. % of LPS at 10 ng/ml) did it give?
Answer: 660 nM

Question: For `CCCCCCCCCCCC(=O)NCC(=O)N[C@H](COCC[C@@H](CCCCCCC)OC(=O)CCCCCCCCCCC)COP(=O)(O)OCCNC(=O)NCCOP(=O)(O)OC[C@@H](COCC[C@@H](CCCCCCC)OC(=O)CCCCCCCCCCC)NC(=O)CNC(=O)CCCCCCCCCCC` [compound 804221], which EC50 (vs. % of LPS at 10 ng/ml) is on record?
Answer: 2200 nM

Question: For `CCCCCCCCCCCCCCN[C@@H](COCC[C@@H](CCCCCCC)OC(=O)CCCCCCCCCCC)COP(=O)(O)OCCNC(=O)NCCOP(=O)(O)OC[C@H](COCC[C@@H](CCCCCCC)OC(=O)CCCCCCCCCCC)NCCCCCCCCCCCCCC` [compound 804252], which EC50 ((576-021) + EtOH) is on record?
Answer: 400 nM

Question: `CCCCCCCCCCCCCC(=O)N[C@H](COCC[C@H](CCCCCCC)NC(=O)CCCCCCCCCCC)COP(=O)(O)OCCNC(=O)NCCOP(=O)(O)OC[C@@H](COCC[C@H](CCCCCCC)NC(=O)CCCCCCCCCCC)NC(=O)CCCCCCCCCCCCC` [compound 804253] was tested. Which EC50 (vs. % of LPS at 10 ng/ml) did it give?
Answer: > 10000 nM

Question: For `CCCCCCCCCCCCCCN[C@H](COCC[C@@H](CCCCCCC)OC(=O)CCCCCCCCCCC)COP(=O)(O)OCCNC(=O)NCCOP(=O)(O)OC[C@@H](COCC[C@@H](CCCCCCC)OC(=O)CCCCCCCCCCC)NCCCCCCCCCCCCCC` [compound 804281], which EC50 (vs. % of LPS at 10 ng/ml) is on record?
Answer: 450 nM

Question: How did the EC50 (vs. % of LPS at 10 ng/ml) turn out when `CCCCCCCCCCCCC(O)C(=O)N[C@H](COCC[C@@H](CCCCCCC)OC(=O)CCCCCCCCCCC)COP(=O)(O)OCCNC(=O)NCCOP(=O)(O)OC[C@@H](COCC[C@@H](CCCCCCC)OC(=O)CCCCCCCCCCC)NC(=O)C(O)CCCCCCCCCCCC` (stereo partly drawn) [compound 804313] was run?
Answer: 14 nM

Question: How did the EC50 (vs. % of LPS at 10 ng/ml) turn out when `CCCCCCCCCCCCCCN(C(C)=O)[C@H](COCC[C@@H](CCCCCCC)OC(=O)CCCCCCCCCCC)COP(=O)(O)OCCNC(=O)NCCOP(=O)(O)OC[C@@H](COCC[C@@H](CCCCCCC)OC(=O)CCCCCCCCCCC)N(CCCCCCCCCCCCCC)C(C)=O` [compound 804339] was run?
Answer: 1060 nM

Question: How did the EC50 (vs. % of LPS at 10 ng/ml) turn out when `CCCCCCCCCCCCCC(=O)N[C@H](COCC[C@@H](CCCCCCC)OCCCCCCCCCCCC)COP(=O)(O)OCCNC(=O)NCCOP(=O)(O)OC[C@@H](COCC[C@@H](CCCCCCC)OCCCCCCCCCCCC)NC(=O)CCCCCCCCCCCCC` [compound 804372] was run?
Answer: 400 nM

Question: For `CCCCCCCCCCCCCC(=O)N[C@@H](CC[N+](C)(C)CCCNC(=O)NCCC[N+](C)(C)CC[C@@H](COC(=O)C[C@@H](CCCCCCC)OC(=O)CCCCCCCCCCC)NC(=O)CCCCCCCCCCCCC)COC(=O)C[C@@H](CCCCCCC)OC(=O)CCCCCCCCCCC` [compound 804947], which EC50 (Homo sapiens, vs. % of LPS at 10 ng/ml) is on record?
Answer: > 10000 nM
